Key:
barnyardgrass [1] = experiment: Test A pre-/postemergence herbicide test; type: in vivo, Echinochloa crus-galli
Summary of the method: (§1)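 Scoring was visual, relative to untreated controls, on a 0–100 scale after about 10 greenhouse days. Preemergence treatment used a directed soil spray over seeded loam/sand; postemergence treatment targeted one- to two-leaf plants of 2–10 cm.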

kochia = experiment: Test A pre-/postemergence herbicide test; type: in vivo, Kochia scoparia; details: for Plant response rating, Kochia: 0 to 100 scale
Summary of the method: as §1

ragweed = experiment: Test A pre-/postemergence herbicide test; type: in vivo, Ambrosia elatior; details: for Plant response rating, Ragweed: 0 to 100 scale
Summary of the method: as §1

ryegrass, Italian = experiment: Test A pre-/postemergence herbicide test; type: in vivo, Lolium multiflorum; details: for Plant response rating, Ryegrass, Italian: 0 to 100 scale
Summary of the method: as §1

giant foxtail = experiment: Test A pre-/postemergence herbicide test; type: in vivo, Setaria faberii; details: for Plant response rating, Foxtail, Giant: 0 to 100 scale
Summary of the method: as §1

pigweed = experiment: Test A pre-/postemergence herbicide test; type: in vivo, Amaranthus retroflexus; details: for Plant response rating, Pigweed: 0 to 100 scale
Summary of the method: as §1

wheat = experiment: Test A pre-/postemergence herbicide test; type: in vivo, Triticum aestivum; details: Postemergence; for Plant response rating, Wheat: 125 g ai/ha, 0 to 100 scale, 0 is no effect, 100 is complete control; for Wheat plant response rating (0 to 100 scale, 0 is no effect, 100 is complete control): 500 g ai/ha
Summary of the method: as §1

corn = experiment: Test A pre-/postemergence herbicide test; type: in vivo, Zea mays; details: Postemergence; for Plant response rating, Corn: 125 g ai/ha, 0 to 100 scale, 0 is no effect, 100 is complete control; for Corn plant response rating (0 to 100 scale, 0 is no effect, 100 is complete control): 500 g ai/ha
Summary of the method: as §1

blackgrass = experiment: Test A postemergence herbicide test; type: in vivo, Alopecurus myosuroides; details: for Plant response rating, Blackgrass: 125 g ai/ha, 0 to 100 scale, 0 is no effect, 100 is complete control; for Blackgrass plant response rating (0 to 100 scale, 0 is no effect, 100 is complete control): 500 g ai/ha
Summary of the method: (§2)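 Ratings compare treated with untreated plants roughly 10 days after a postemergence application made at the one- to two-leaf stage. Scoring uses 0–100, where 0 means no effect and 100 complete control.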

galium = experiment: Test A postemergence herbicide test; type: in vivo, Galium aparine; details: for Plant response rating, Galium: 125 g ai/ha, 0 to 100 scale, 0 is no effect, 100 is complete control; for Galium plant response rating (0 to 100 scale, 0 is no effect, 100 is complete control): 500 g ai/ha
Summary of the method: as §2

rice = experiment: Test B flooded paddy test; type: in vivo, Oryza sativa; details: 500 g ai/ha, Flood; scale of 0 to 100 where 0 is no effect and 100 is complete control
Summary of the method: (§3)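 First, plants reach the 2-leaf stage; next, pots are flooded to 3 cm and compound is delivered into the water; finally, after 13 to 15 greenhouse days at constant depth, injury is graded visually from 0 to 100 against controls.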

sedge, umbrella = experiment: Test B flooded paddy test; type: in vivo, Cyperus difformis; details: 500 g ai/ha, Flood; scale of 0 to 100 where 0 is no effect and 100 is complete control
Summary of the method: as §3

ducksalad = experiment: Test B flooded paddy test; type: in vivo, Heteranthera limosa; details: 500 g ai/ha, Flood; scale of 0 to 100 where 0 is no effect and 100 is complete control
Summary of the method: as §3

barnyardgrass [2] = experiment: Test B flooded paddy test; type: in vivo, Echinochloa crus-galli; details: 500 g ai/ha, Flood; scale of 0 to 100 where 0 is no effect and 100 is complete control
Summary of the method: as §3

[3] = 125 g ai/ha, visual rating, 0 to 100 scale, 0 no effect, 100 complete control, approximately 10 days, preemergence
[4] = Postemergence, 125 g ai/ha, 0 to 100 scale, 0 is no effect, 100 is complete control
[5] = preemergence, 500 g ai/ha, 0 to 100 scale (0 no effect, 100 complete control)
[6] = 125 g ai/ha, visual rating, 0 no effect, 100 complete control, approximately 10 days, preemergence
[7] = Postemergence, 125 g ai/ha, 0 is no effect, 100 is complete control
[8] = preemergence, 500 g ai/ha, 0 is no effect and 100 is complete control

Compound	Plant response rating, Barnyardgrass (barnyardgrass [1]; [3])	Plant response rating, Barnyardgrass (barnyardgrass [1]; [4])	Barnyardgrass plant response rating (0 to 100 scale, 0 is no effect, 100 is complete control) (barnyardgrass [1]; Postemergence, 500 g ai/ha)	Plant response rating, Barnyardgrass (barnyardgrass [1]; [5])	Plant response rating, Kochia (kochia; [6])	Plant response rating, Kochia (kochia; [7])	Kochia plant response rating (0 to 100 scale, 0 is no effect, 100 is complete control) (kochia; Postemergence, 500 g ai/ha)	Plant response rating, Kochia (kochia; [8])	Plant response rating, Ragweed (ragweed; [6])	Plant response rating, Ragweed (ragweed; [7])	Ragweed plant response rating (0 to 100 scale, 0 is no effect, 100 is complete control) (ragweed; Postemergence, 500 g ai/ha)	Plant response rating, Ragweed (ragweed; [8])	Plant response rating, Ryegrass, Italian (ryegrass, Italian; [6])	Plant response rating, Ryegrass, Italian (ryegrass, Italian; [7])	Ryegrass, Italian plant response rating (0 to 100 scale, 0 is no effect, 100 is complete control) (ryegrass, Italian; Postemergence, 500 g ai/ha)	Plant response rating, Ryegrass, Italian (ryegrass, Italian; [8])	Plant response rating, Foxtail, Giant (giant foxtail; [6])	Plant response rating, Foxtail, Giant (giant foxtail; [7])	Foxtail, Giant plant response rating (0 to 100 scale, 0 is no effect, 100 is complete control) (giant foxtail; Postemergence, 500 g ai/ha)	Plant response rating, Foxtail, Giant (giant foxtail; preemergence, 500 g ai/ha)	also measured
O=C1NCC(c2ccc3c(c2)OC(F)(F)O3)C1C(=O)Nc1ccccc1F (racemic) [Compound 161]	90	90	90	90	20	20	60	60	20	0	30	70	0	20	50	50	90	90	90	90	Plant response rating, Pigweed (pigweed; [6]): 20; Plant response rating, Pigweed (pigweed; [7]): 20; Pigweed plant response rating (0 to 100 scale, 0 is no effect, 100 is complete control) (pigweed; Postemergence, 500 g ai/ha): 60; Plant response rating, Pigweed (pigweed; [8]): 70; Plant response rating, Wheat (wheat): 20; Wheat plant response rating (0 to 100 scale, 0 is no effect, 100 is complete control) (wheat): 40; Plant response rating, Corn (corn): 10; Corn plant response rating (0 to 100 scale, 0 is no effect, 100 is complete control) (corn): 60; Plant response rating, Blackgrass (blackgrass): 50; Blackgrass plant response rating (0 to 100 scale, 0 is no effect, 100 is complete control) (blackgrass): 50; Plant response rating, Galium (galium): 50; Galium plant response rating (0 to 100 scale, 0 is no effect, 100 is complete control) (galium): 60; Plant response rating, Rice (rice): 10; Plant response rating, Sedge, Umbrella (sedge, umbrella): 0; Plant response rating, Ducksalad (ducksalad): 100; Plant response rating, Barnyardgrass (barnyardgrass [2]): 65
O=C1NCC(c2cccc(C(F)F)c2)C1C(=O)Nc1ccc(F)c(F)c1F (racemic) [Compound 165]	90	90	90	90	70	50	70	70	0	20	50	80	0	40	50	20	90	70	90	90	Plant response rating, Pigweed (pigweed; [6]): 50; Plant response rating, Pigweed (pigweed; [7]): 30; Pigweed plant response rating (0 to 100 scale, 0 is no effect, 100 is complete control) (pigweed; Postemergence, 500 g ai/ha): 50; Plant response rating, Pigweed (pigweed; [8]): 70; Plant response rating, Wheat (wheat): 30; Wheat plant response rating (0 to 100 scale, 0 is no effect, 100 is complete control) (wheat): 70; Plant response rating, Corn (corn): 60; Corn plant response rating (0 to 100 scale, 0 is no effect, 100 is complete control) (corn): 80; Plant response rating, Blackgrass (blackgrass): 60; Blackgrass plant response rating (0 to 100 scale, 0 is no effect, 100 is complete control) (blackgrass): 70; Plant response rating, Galium (galium): 40; Galium plant response rating (0 to 100 scale, 0 is no effect, 100 is complete control) (galium): 50; Plant response rating, Rice (rice): 10; Plant response rating, Sedge, Umbrella (sedge, umbrella): 0; Plant response rating, Ducksalad (ducksalad): 100; Plant response rating, Barnyardgrass (barnyardgrass [2]): 75
O=C1NCC(c2cccc(C3CC3)c2)C1C(=O)Nc1ccccc1F (racemic) [Compound 166]	80	80	80	90	30	30	70	70	0	0	0	50	20	0	50	60	90	80	90	90	Plant response rating, Pigweed (pigweed; [6]): 0; Plant response rating, Pigweed (pigweed; [7]): 40; Pigweed plant response rating (0 to 100 scale, 0 is no effect, 100 is complete control) (pigweed; Postemergence, 500 g ai/ha): 50; Plant response rating, Pigweed (pigweed; [8]): 10; Plant response rating, Wheat (wheat): 20; Wheat plant response rating (0 to 100 scale, 0 is no effect, 100 is complete control) (wheat): 50; Plant response rating, Corn (corn): 30; Corn plant response rating (0 to 100 scale, 0 is no effect, 100 is complete control) (corn): 80; Plant response rating, Blackgrass (blackgrass): 50; Blackgrass plant response rating (0 to 100 scale, 0 is no effect, 100 is complete control) (blackgrass): 60; Plant response rating, Galium (galium): 20; Galium plant response rating (0 to 100 scale, 0 is no effect, 100 is complete control) (galium): 60; Plant response rating, Rice (rice): 0; Plant response rating, Sedge, Umbrella (sedge, umbrella): 0; Plant response rating, Ducksalad (ducksalad): 100; Plant response rating, Barnyardgrass (barnyardgrass [2]): 75
O=C1NCC(c2cccc(C3CC3)c2)C1C(=O)Nc1cccc(F)c1F (racemic) [Compound 167]	90	90	90	90	20	30	50	60	0	20	50	50	20	20	40	70	90	90	90	90	Plant response rating, Pigweed (pigweed; [6]): 50; Plant response rating, Pigweed (pigweed; [7]): 0; Pigweed plant response rating (0 to 100 scale, 0 is no effect, 100 is complete control) (pigweed; Postemergence, 500 g ai/ha): 0; Plant response rating, Pigweed (pigweed; [8]): 50; Plant response rating, Wheat (wheat): 0; Wheat plant response rating (0 to 100 scale, 0 is no effect, 100 is complete control) (wheat): 50; Plant response rating, Corn (corn): 0; Corn plant response rating (0 to 100 scale, 0 is no effect, 100 is complete control) (corn): 70; Plant response rating, Blackgrass (blackgrass): 50; Blackgrass plant response rating (0 to 100 scale, 0 is no effect, 100 is complete control) (blackgrass): 60; Plant response rating, Galium (galium): 50; Galium plant response rating (0 to 100 scale, 0 is no effect, 100 is complete control) (galium): 60; Plant response rating, Rice (rice): 10; Plant response rating, Sedge, Umbrella (sedge, umbrella): 0; Plant response rating, Ducksalad (ducksalad): 100; Plant response rating, Barnyardgrass (barnyardgrass [2]): 75
